Measurements as given in patent publication US20080260716A1, “Method and Composition for High Level Disinfection Employing Quaternary Ammonium Compounds” (priority 2004, published 2008).
Read-outs that look alike come from different tables or passages of the source.

Assays:
[1] = tested on: Mycobacterium terrae; assay: AOAC tuberculocidal test, kill time; format: cell-based; settings: for Kill Time M. terrae: tests 7.1-7.4, 1% of the quat, 50° C.
From the text: These standards are based on the known or possible risk of contamination of a particular medical device by a particular micro-organism, the pathogenic nature of the organism and other principles in infection control. […] The test panels and criteria are different for “low”, “intermediate” or “high-level disinfection”. These terms are herein used in accordance with current Food and Drug Administration (“FDA”) criteria for levels of disinfection which are detailed in Premarket Notification [510(k)] Submissions for Liquid Chemical Sterilants and High Level Disinfectants FDA 1997: “A germicide that inactivates all microbial pathogens except large number of bacterial endospores when used according to labelling”. In brief, the FDA regulatory requirement for high level disinfectants includes as the most challenging test a 100% kill of Mycobacterium tuberculosis var. bovis (or a specific strain of a suitable surrogate, such as Mycobacterium terrae) in 400 p.p.m. hard water in the presence of 2% horse serum in a quantitative tuberculocidal test.
In the following tables unless otherwise specified references to “kill time” mean the time required to achieve complete kill as defined in the relevant AOAC test (more particularly identified in annexure 1). “No kill” means less than 2 log reduction from the initial population. Unless otherwise specified “QUAT” is benzalkonium chloride, specifically Gardiquat NC-50 (Albright & Wilson). Test points for vegetative bacteria (M. terrae) were 2, 5, 10, 20 and 60 mins. Test points for spores were 0.5, 1, 2, 4, 16, 24, 48 hours. The last column in each table indicates whether the tested combination satisfies the FDA requirement for high level disinfection (“HLD”) or fails to do so (“F”).
AOAC tests for determination of High level Disinfection as defined in current FDA criteria (detailed in “Premarket Notification [510(k)] Submissions for Liquid Chemical Sterilants and High Level Disinfectants FDA 1993”.):
AOAC Tuberculocidal Activity of Disinfectants
AOAC Ref No 965.12, AOAC Official Methods of Analysis (1995)

[2] = tested on: B. subtilis spores; assay: AOAC sporicidal test, kill time; format: cell-based; settings: 50° C.
[3] = tested on: C. sporogens spores; assay: AOAC sporicidal test, kill time; format: cell-based; settings: 50° C.
[4] = tested on: Mycobacterium terrae, B. subtilis, C. sporogens; set-up: key: satisfies the FDA requirement for high level disinfection (“HLD”); fails to do so (“F”)
[5] = 30 min, 20° C. (Sporox); cited from earlier work
[6] = tests 7.1-7.4, 1% of the quat, 50° C.

## CCCCCCCCCC[N+](C)(C)CCCCCCCCCC.[Cl-] [Quat(1), Didecyl Dimethyl Ammonium Chloride]
[1]
  Kill Time M. terrae: <10 min
[2]; test 7.1, 1% Quat(1)
  Kill Time B. subtilis: <2 h
[3]; test 7.1, 1% Quat(1)
  Kill Time C. sporogens: <2 h
[4]; [6]
  HLD or F: HLD

## CCCCCCCC[N+](C)(C)CCCCCCCC.[Cl-] [Quat(2), Dioctyl Dimethyl Ammonium Chloride]
[1]
  Kill Time M. terrae: <10 min
[2]; tests 7.2-7.4, 1% of the quat
  Kill Time B. subtilis: <2 h
[3]; tests 7.2-7.4, 1% of the quat
  Kill Time C. sporogens: <2 h
[4]; [6]
  HLD or F: HLD

## CC(C)(C)CC(C)(C)c1ccc(OCCOCC[N+](C)(C)Cc2ccccc2)cc1 [benzethonium chloride, reference compound]
[1]; 0.25%, temperatures above 60° C., with ultrasound
  effectiveness against Mycobacterium: not effective
[4]; test 1.3, 0.25% benzethonium chloride, 0.25% Triton X-100, 5% isopropanol, 62° C. + ultrasound 20 min/hr
  HLD or F: F

## OO [peroxide, hydrogen peroxide]
[5]
  minimum effective concentration for high-level disinfection: 6.0%

## N-Alkyl Dimethyl Ammonium Chloride [Quat(3)]
[1]
  Kill Time M. terrae: <10 min
[2]; tests 7.2-7.4, 1% of the quat
  Kill Time B. subtilis: <2 h
[3]; tests 7.2-7.4, 1% of the quat
  Kill Time C. sporogens: <2 h
[4]; [6]
  HLD or F: HLD
